Source: publication PMC5617326, “Structural Basis of Catalysis in the Bacterial Monoterpene Synthases Linalool Synthase and 1,8-Cineole Synthase” (ACS Catalysis, 2017)

Key:
[1] = target: T1, bLinS; linalool synthase; linalool/nerolidol synthase (Streptomyces clavuligerus, UniProt D5SL78); experiment: X-ray crystal structure, co-crystal; EPR with Mn2+; format: binding; settings: 1.82 A; FGPP in monomer A only; one Mg2+; noncatalytic mode suggested; pH 7.5
T1 construct: gene SCLAV_p1185; full-length codon-optimized gene in pETM11, N-terminal 6xHis tag and TEV site, tag cleaved; E. coli ArcticExpress (DE3); ~330 residues; two molecules in asymmetric unit
T1 sequence (D5SL78 1-329): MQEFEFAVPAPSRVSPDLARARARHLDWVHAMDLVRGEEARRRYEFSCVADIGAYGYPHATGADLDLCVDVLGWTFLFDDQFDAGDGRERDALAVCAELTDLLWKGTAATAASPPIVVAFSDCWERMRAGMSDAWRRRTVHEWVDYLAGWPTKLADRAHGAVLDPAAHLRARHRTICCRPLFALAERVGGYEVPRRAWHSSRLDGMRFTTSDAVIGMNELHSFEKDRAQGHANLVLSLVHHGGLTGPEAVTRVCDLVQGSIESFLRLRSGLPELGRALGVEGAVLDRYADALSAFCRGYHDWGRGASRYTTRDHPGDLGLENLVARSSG

[2] = target: T2, bCinS; 1,8-cineole synthase (Streptomyces clavuligerus, UniProt B5GMG2); experiment: X-ray crystal structure, FGPP soaked into FNPP co-crystal; EPR with Mn2+; format: binding; settings: 1.51 A; partial exchange, mixed FNPP/FGPP occupancy; three Mg2+ (third partly occupied); active site
T2 construct: gene cnsA; full-length codon-optimized gene in pETM11, N-terminal 6xHis tag and TEV site, tag cleaved; E. coli ArcticExpress (DE3); ~330 residues; dimer
T2 sequence (B5GMG2 whole entry): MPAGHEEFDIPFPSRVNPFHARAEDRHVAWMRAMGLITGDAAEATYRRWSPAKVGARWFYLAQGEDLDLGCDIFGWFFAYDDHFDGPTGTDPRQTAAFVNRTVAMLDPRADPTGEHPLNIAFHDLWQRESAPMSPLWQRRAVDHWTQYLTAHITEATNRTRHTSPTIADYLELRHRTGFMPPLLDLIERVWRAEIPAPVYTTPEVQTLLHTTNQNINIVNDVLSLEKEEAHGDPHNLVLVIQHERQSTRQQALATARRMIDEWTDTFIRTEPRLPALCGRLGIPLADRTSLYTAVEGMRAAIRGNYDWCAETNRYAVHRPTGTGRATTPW

[3] = target: T1, bLinS; linalool synthase; linalool/nerolidol synthase; experiment: product analysis by GC-MS in engineered E. coli; chiral GC; format: cell-based; settings: host-made FPP in E. coli expressing bLinS; product trans-nerolidol

Compound | X-ray crystal structure, co-crystal; EPR with Mn2+ [1] | X-ray crystal structure, FGPP soaked into FNPP co-crystal; EPR with Mn2+ [2] | product analysis by GC-MS in engineered E. coli; chiral GC [3]
CC(C)=CCC/C(C)=C(\F)COP(=O)(O)OP(=O)(O)O [FGPP, 2-fluorogeranyl pyrophosphate] | clear electron density corresponding to FGPP is only present in monomer A | Soaking of the bCinS-FNPP crystals with FGPP led to the partial exchange | 
CC(C)=CCC/C(C)=C/CC/C(C)=C/COP(=O)(O)OP(=O)(O)O [FPP, farnesyl pyrophosphate] |  |  | Strains containing bLinS were able to convert FPP to nerolidol
